Reference: PubChem BioAssay (NCI)
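GI50: concentration for 50% inhibition of growth. The concentration for full growth arrest is given as TGI.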

What was measured:
Experiment in all cases: growth of human tumour cells (NCI), 384-well format
BT-549 breast = test system: BT-549 breast
SK-MEL-5 melanoma = test system: SK-MEL-5 melanoma
NCI-H226 lung = test system: NCI-H226 lung
SK-MEL-28 melanoma = test system: SK-MEL-28 melanoma
HOP-62 NSCLC = test system: HOP-62 NSCLC
M14 melanoma = test system: M14 melanoma
KM12 colon = test system: KM12 colon
SN12C renal = test system: SN12C renal
K-562 leukemia = test system: K-562 leukemia
HCT-116 colon = test system: HCT-116 colon
IGROV1 ovarian = test system: IGROV1 ovarian
UACC-257 melanoma = test system: UACC-257 melanoma
SF-539 CNS = test system: SF-539 CNS
NCI-H460 NSCLC = test system: NCI-H460 NSCLC
OVCAR-4 ovarian = test system: OVCAR-4 ovarian
UACC-62 melanoma = test system: UACC-62 melanoma
EKVX NSCLC = test system: EKVX NSCLC
NCI-H322M lung = test system: NCI-H322M lung
NCI-H23 lung = test system: NCI-H23 lung
HCC-2998 colon = test system: HCC-2998 colon
SK-MEL-2 melanoma = test system: SK-MEL-2 melanoma
RXF 393 renal = test system: RXF 393 renal
SNB-19 CNS = test system: SNB-19 CNS
PC-3 prostate = test system: PC-3 prostate
MDA-MB-231 breast = test system: MDA-MB-231 breast
ACHN renal = test system: ACHN renal
CAKI-1 renal = test system: CAKI-1 renal
DU-145 prostate = test system: DU-145 prostate
MCF7 breast = test system: MCF7 breast
HS 578T breast = test system: HS 578T breast
NCI/ADR-RES ovarian = test system: NCI/ADR-RES ovarian
MALME-3M melanoma = test system: MALME-3M melanoma
UO-31 renal = test system: UO-31 renal
SK-OV-3 ovarian = test system: SK-OV-3 ovarian
CCRF-CEM leukemia = test system: CCRF-CEM leukemia
SNB-75 CNS = test system: SNB-75 CNS
U251 glioblastoma = test system: U251 glioblastoma
OVCAR-3 ovarian = test system: OVCAR-3 ovarian
HT29 colon = test system: HT29 colon
MOLT-4 leukemia = test system: MOLT-4 leukemia
COLO 205 colon = test system: COLO 205 colon
HCT-15 colon = test system: HCT-15 colon
SW-620 colon = test system: SW-620 colon
SR leukemia = test system: SR leukemia
SF-295 CNS = test system: SF-295 CNS
OVCAR-5 ovarian = test system: OVCAR-5 ovarian
SF-268 CNS = test system: SF-268 CNS
LOX IMVI melanoma = test system: LOX IMVI melanoma
OVCAR-8 ovarian = test system: OVCAR-8 ovarian
NCI-H522 lung = test system: NCI-H522 lung
786-0 renal = test system: 786-0 renal
T-47D breast = test system: T-47D breast
A549 NSCLC = test system: A549 NSCLC
TK-10 renal = test system: TK-10 renal
HL-60(TB) leukemia = test system: HL-60(TB) leukemia
MDA-MB-435 melanoma = test system: MDA-MB-435 melanoma
MDA-MB-468 breast = test system: MDA-MB-468 breast
HOP-92 NSCLC = test system: HOP-92 NSCLC
RPMI-8226 leukemia = test system: RPMI-8226 leukemia
A498 renal = test system: A498 renal

Cc1[nH]nc(C(F)(F)F)c1Cc1sc2c(c1C(=O)N1C[C@](C)(O)CO1)c(=O)n(C)c(=O)n2C(C)C
GI50 (BT-549 breast): > 57 µM
TGI (BT-549 breast): > 100 µM
TGI (SK-MEL-5 melanoma): > 100 µM
GI50 (NCI-H226 lung): > 100 µM
TGI (NCI-H226 lung): > 100 µM
GI50 (SK-MEL-28 melanoma): > 100 µM
TGI (SK-MEL-28 melanoma): > 100 µM
GI50 (HOP-62 NSCLC): > 27.3 µM
TGI (HOP-62 NSCLC): > 100 µM
GI50 (M14 melanoma): > 33.7 µM
TGI (M14 melanoma): > 100 µM
GI50 (KM12 colon): > 31.6 µM
TGI (KM12 colon): > 100 µM
GI50 (SN12C renal): > 100 µM
TGI (SN12C renal): > 100 µM
TGI (K-562 leukemia): > 100 µM
GI50 (HCT-116 colon): > 24.5 µM
TGI (HCT-116 colon): > 100 µM
GI50 (IGROV1 ovarian): > 100 µM
TGI (IGROV1 ovarian): > 100 µM
GI50 (UACC-257 melanoma): > 100 µM
TGI (UACC-257 melanoma): > 100 µM
GI50 (SF-539 CNS): > 27 µM
TGI (SF-539 CNS): > 100 µM
TGI (NCI-H460 NSCLC): > 100 µM
GI50 (OVCAR-4 ovarian): > 100 µM
TGI (OVCAR-4 ovarian): > 100 µM
TGI (UACC-62 melanoma): > 100 µM
GI50 (EKVX NSCLC): > 100 µM
TGI (EKVX NSCLC): > 100 µM
GI50 (NCI-H322M lung): > 100 µM
TGI (NCI-H322M lung): > 100 µM
GI50 (NCI-H23 lung): > 27.1 µM
TGI (NCI-H23 lung): > 100 µM
GI50 (HCC-2998 colon): > 100 µM
TGI (HCC-2998 colon): > 100 µM
GI50 (SK-MEL-2 melanoma): 39.1 µM
TGI (SK-MEL-2 melanoma): > 100 µM
GI50 (RXF 393 renal): > 27.3 µM
TGI (RXF 393 renal): > 100 µM
GI50 (SNB-19 CNS): > 100 µM
TGI (SNB-19 CNS): > 100 µM
GI50 (PC-3 prostate): > 100 µM
TGI (PC-3 prostate): > 100 µM
GI50 (MDA-MB-231 breast): > 100 µM
TGI (MDA-MB-231 breast): > 100 µM
GI50 (ACHN renal): > 33.1 µM
TGI (ACHN renal): > 100 µM
GI50 (CAKI-1 renal): > 47.6 µM
TGI (CAKI-1 renal): > 80 µM
GI50 (DU-145 prostate): > 30.5 µM
TGI (DU-145 prostate): > 100 µM
GI50 (MCF7 breast): > 82.5 µM
TGI (MCF7 breast): > 100 µM
GI50 (HS 578T breast): 8.39 µM
TGI (HS 578T breast): > 100 µM
GI50 (NCI/ADR-RES ovarian): > 58.7 µM
TGI (NCI/ADR-RES ovarian): > 100 µM
GI50 (MALME-3M melanoma): > 77.9 µM
TGI (MALME-3M melanoma): > 100 µM
GI50 (UO-31 renal): 12.9 µM
TGI (UO-31 renal): > 100 µM
GI50 (SK-OV-3 ovarian): > 100 µM
TGI (SK-OV-3 ovarian): > 100 µM
GI50 (CCRF-CEM leukemia): 0.779 µM
GI50 (SNB-75 CNS): > 41.9 µM
TGI (SNB-75 CNS): > 100 µM
GI50 (U251 glioblastoma): > 25 µM
TGI (U251 glioblastoma): > 100 µM
GI50 (OVCAR-3 ovarian): > 29.3 µM
TGI (OVCAR-3 ovarian): > 100 µM
GI50 (HT29 colon): > 39.6 µM
TGI (HT29 colon): > 100 µM
GI50 (MOLT-4 leukemia): 0.0847 µM
GI50 (COLO 205 colon): > 21.8 µM
TGI (COLO 205 colon): > 100 µM
GI50 (HCT-15 colon): 12.2 µM
TGI (HCT-15 colon): > 100 µM
GI50 (SW-620 colon): > 24.4 µM
TGI (SW-620 colon): > 100 µM
GI50 (SR leukemia): > 100 µM
TGI (SR leukemia): > 100 µM
GI50 (SF-295 CNS): > 100 µM
TGI (SF-295 CNS): > 100 µM
GI50 (OVCAR-5 ovarian): > 78.6 µM
TGI (OVCAR-5 ovarian): > 100 µM
TGI (SF-268 CNS): > 29.6 µM
TGI (LOX IMVI melanoma): > 100 µM
GI50 (OVCAR-8 ovarian): > 22.8 µM
TGI (OVCAR-8 ovarian): > 100 µM
GI50 (NCI-H522 lung): 2.15 µM
TGI (NCI-H522 lung): 18.3 µM
GI50 ([…]-0 renal): > 26.9 µM
TGI (786-0 renal): > 100 µM
GI50 (T-47D breast): > 100 µM
TGI (T-47D breast): > 100 µM
GI50 (A549 NSCLC): > 21.2 µM
TGI (A549 NSCLC): > 100 µM
GI50 (TK-10 renal): > 100 µM
TGI (TK-10 renal): > 100 µM
TGI (HL-60(TB) leukemia): > 29.8 µM
GI50 (MDA-MB-435 melanoma): > 69 µM
TGI (MDA-MB-435 melanoma): > 100 µM
GI50 (MDA-MB-468 breast): 4.75 µM
TGI (MDA-MB-468 breast): 66.4 µM
GI50 (HOP-92 NSCLC): > 100 µM
TGI (HOP-92 NSCLC): > 100 µM
GI50 (RPMI-8226 leukemia): 20.9 µM
TGI (RPMI-8226 leukemia): > 86 µM
GI50 (A498 renal): > 100 µM
TGI (A498 renal): > 100 µM
